The test deals with Nestin tv-a derived DIPG. The test can be described thus: Cell viability reference control (dasatinib). The test is classed as cell-based. The settings on record: four parameter logistic standard curve regression, R^2=0.972.

As usually defined, the IC50 is the point on the concentration scale where inhibition reaches its midpoint. Low readings indicate greater potency in that assay, high ones weaker potency in that assay.

Take `Cc1nc(Nc2ncc(C(=O)Nc3c(C)cccc3Cl)s2)cc(N2CCN(CCO)CC2)n1` [dasatinib]: inhibition was half-maximal at 19 ± 20 nM (IC50).

Values taken from patent US20250041463A1, “FLUORINE-18 LABELED COMPOSITIONS AND THEIR USE IN IMAGING OF BIOLOGICAL TISSUE” (CORNELL UNIVERSITY, priority 2018, published 2025).
